# Source: ChEMBL document CHEMBL4665751, “Discovery of Clinical Candidate (5-(3-(4-Chlorophenoxy)prop-1-yn-1-yl)-3-hydroxypicolinoyl)glycine, an Orally Bioavailable Prolyl Hydroxylase Inhibitor for the Treatment of Anemia” (J Med Chem, 2020)
# Active and inactive are the calls of the source. The rule behind the calls is not given here.
# What was measured:
# [1] = Genotoxicity in Salmonella typhimurium TA98 at 62.5 to 1000 ug incubated for 48 to 50 hrs in presence of S9 fraction by Ames test; assay type: toxicity, subcellular, Salmonella enterica subsp. enterica serovar Typhimurium; conditions: dose 62.5-1000 µg, time 48-50 hrs
# [2] = Clearance in Beagle dog at 0.5 mg/kg, iv by LC-MS/MS analysis; assay type: ADME, organism-based, Canis lupus familiaris; conditions: in vivo
# Homo sapiens [3] = species on record: Homo sapiens; test: Selectivity index, ratio of IC50 for KDM6B (unknown origin) in presence of peptide substrate incubated for 30 mins by alpha screen assay to IC50 for PHD2 (unknown origin) by O-phenyl enediamine(OPD) based fluorescence assay
# HUVEC = test: Cytotoxicity against human HUVEC cells assessed as reduction in cell viability at 10 to 100 uM incubated for 72 hrs by MTT assay; assay type: cell-based; conditions: dose 10-100 µM
# [4] = Half-life in mouse hepatocytes at 100 uM incubated up to 120 mins by LC-MS/MS analysis; assay type: ADME, cell-based, Hepatocyte
# [5] = Hepatotoxicity in male Sprague-Dawley rat assessed as change in aspartate aminotransferase level in blood at 200 mg/kg, po administered every alternate days for 2 weeks measured on day 14; assay type: toxicity, organism-based; conditions: in vivo, 336 h, time 14 day
# [6] = Acute toxicity in Sprague-Dawley rat assessed as change in ratio of adrenal gland to body weight at 15 to 200 mg/kg, po administered every alternate days for 2 weeks measured on day 14; assay type: organism-based; conditions: in vivo, 336 h, dose 15-200 mg/kg, time 14 day
# [7] = MRT (0 to infinity) in Beagle dog at 2 mg/kg, ig by LC-MS/MS analysis; assay type: ADME, organism-based, Canis lupus familiaris; conditions: in vivo, po
# L02 = test: Cytotoxicity against human L02 cells assessed as reduction in cell viability at 10 to 100 uM incubated for 72 hrs by MTT assay; assay type: cell-based; conditions: l02, 72 h, dose 10-100 µM
# [8] = Acute toxicity in Sprague-Dawley rat assessed as change in body weight at 15 to 200 mg/kg, po administered every alternate days for 14 days; assay type: organism-based; conditions: in vivo, 336 h, dose 15-200 mg/kg, time 14 day
# Egl nine homolog 1 = Egl nine homolog 1 (Homo sapiens, UniProt Q9GZT9); test: Inhibition of FITC-HIF1alpha (556 to 574 residues) binding to PHD2 (181 to 426 residues) (unknown origin) by fluorescence polarization assay
# [9] = Clearance in Beagle dog at 2 mg/kg, ig by LC-MS/MS analysis; assay type: ADME, organism-based, Canis lupus familiaris; conditions: in vivo, po
# [10] = Half-life in rat hepatocytes at 100 uM incubated up to 120 mins by LC-MS/MS analysis; assay type: ADME, cell-based, Hepatocyte
# Homo sapiens [11] = species on record: Homo sapiens; test: Selectivity index, ratio of IC50 for PHD3 (unknown origin) to IC50 for PHD2 (unknown origin) by O-phenyl enediamine(OPD) based fluorescence assay
# [12] = Clearance in Sprague-Dawley rat at 1 mg/kg, iv by LC-MS/MS analysis; assay type: ADME, organism-based; conditions: in vivo
# [13] = Intrinsic clearance in dog liver microsome at 1 uM preincubated for 5 mins followed by NADPH addition measured up to 120 mins by LC-MS/MS analysis; assay type: ADME, Canis lupus familiaris; conditions: microsomes, 2 h, time <=125 min
# [14] = Hepatotoxicity in male Sprague-Dawley rat assessed as change in albumin/globulin ratio at 15 to 200 mg/kg, po administered every alternate days for 2 weeks measured on day 14; assay type: toxicity, organism-based; conditions: in vivo, 336 h, dose 15-200 mg/kg, time 14 day
# [15] = AUC (0 to infinity) in Sprague-Dawley rat at 1 mg/kg, iv by LC-MS/MS analysis; assay type: ADME, organism-based; parameters: time infinity, route intravenous, dose 1 mg/kg; conditions: in vivo
# Cytochrome P450 3A4 [16] = target: T1, Cytochrome P450 3A4 (Homo sapiens, UniProt P08684); test: Inhibition of CYP3A4 (unknown origin) using testosterone as substrate preincubated for 5 mins followed by addition of NADPH measured after 20 mins by LC-MS/MS analysis; assay type: ADME
# Mus musculus [17] = test: Antianemic activity in cisplatin-induced C57BL/6 mouse anemia model assessed as increase in haemoglobin level administered orally every other day for 1 month; assay type: functional, organism-based; conditions: dose mg/kg 10-25, time 1.0 months
# [18] = Hepatotoxicity in male Sprague-Dawley rat assessed as change in globulin level at 15 to 200 mg/kg, po administered every alternate days for 2 weeks measured on day 14; assay type: toxicity, organism-based; conditions: in vivo, 336 h, dose 15-200 mg/kg, time 14 day
# [19] = MRT (0 to infinity) in Beagle dog at 0.5 mg/kg, iv by LC-MS/MS analysis; assay type: ADME, organism-based, Canis lupus familiaris; conditions: in vivo
# MCF7 = test: Cytotoxicity against human MCF7 cells assessed as reduction in cell viability at 10 to 100 uM incubated for 72 hrs by MTT assay; assay type: cell-based; conditions: mcf7, 72 h, dose 10-100 µM
# [20] = Half-life in dog liver microsome at 1 uM preincubated for 5 mins followed by NADPH addition measured up to 120 mins by LC-MS/MS analysis; assay type: ADME, Canis lupus familiaris; conditions: liver microsomes, time <=125 min
# [21] = Apparent volume of distribution in Sprague-Dawley rat at 2 mg/kg, ig by LC-MS/MS analysis; assay type: ADME, organism-based; conditions: in vivo, po
# [22] = AUC (0 to infinity) in Sprague-Dawley rat at 2 mg/kg, ig by LC-MS/MS analysis; assay type: ADME, organism-based; parameters: time infinity, route […], dose 2 mg/kg; conditions: in vivo, po
# [23] = Acute toxicity in Sprague-Dawley rat assessed as change in ratio of kidney to body weight at 15 to 200 mg/kg, po administered every alternate days for 2 weeks measured on day 14; assay type: organism-based; conditions: in vivo, 336 h, dose 15-200 mg/kg, time 14 day
# [24] = Acute toxicity in Sprague-Dawley rat assessed as change in ratio of liver to body weight at 15 to 200 mg/kg, po administered every alternate days for 2 weeks measured on day 14; assay type: organism-based; conditions: in vivo, 336 h, dose 15-200 mg/kg, time 14 day
# [25] = AUC (0 to t) in Beagle dog at 0.5 mg/kg, iv by LC-MS/MS analysis; assay type: ADME, organism-based, Canis lupus familiaris; parameters: dose 0.5 mg/kg; conditions: in vivo
# [26] = Tmax in Beagle dog at 2 mg/kg, ig by LC-MS/MS analysis; assay type: ADME, organism-based, Canis lupus familiaris; conditions: in vivo, po
# [27] = Tmax in Sprague-Dawley rat at 2 mg/kg, ig by LC-MS/MS analysis; assay type: ADME, organism-based; conditions: in vivo, po
# Cytochrome P450 2C9 = Cytochrome P450 2C9 (Homo sapiens, UniProt P11712); test: Inhibition of CYP2C9 (unknown origin) using diclofenac as substrate preincubated for 5 mins followed by addition of NADPH measured after 20 mins by LC-MS/MS analysis; assay type: ADME
# Cytochrome P450 3A4 [28] = target: T1, Cytochrome P450 3A4; test: Inhibition of CYP3A4 (unknown origin) using midazolam as substrate preincubated for 5 mins followed by addition of NADPH measured after 20 mins by LC-MS/MS analysis; assay type: ADME
# Homo sapiens [29] = species on record: Homo sapiens; test: Selectivity index, ratio of IC50 for KDM4A (unknown origin) in presence of peptide substrate incubated for 30 mins by alpha screen assay to IC50 for PHD2 (unknown origin) by O-phenyl enediamine(OPD) based fluorescence assay
# [30] = Intrinsic clearance in monkey liver microsome at 1 uM preincubated for 5 mins followed by NADPH addition measured up to 120 mins by LC-MS/MS analysis; assay type: ADME, Macaca mulatta; conditions: rhesus monkey, microsomes, 2 h, time <=125 min
# Mus musculus [31] = test: Induction of erythropoiesis in po dosed C57BL/6 mouse assessed as increase in red blood cell count administered thrice for 3 days measured 4 hrs post last dose; assay type: functional, organism-based; conditions: dose mg/kg 5-50, time 72.0 hrs
# [32] = Acute toxicity in male Sprague-Dawley rat assessed as change in ratio of testis to body weight at 15 to 200 mg/kg, po administered every alternate days for 2 weeks measured on day 14; assay type: organism-based; conditions: in vivo, 336 h, dose 15-200 mg/kg, time 14 day
# T1 sequence (P08684 whole entry): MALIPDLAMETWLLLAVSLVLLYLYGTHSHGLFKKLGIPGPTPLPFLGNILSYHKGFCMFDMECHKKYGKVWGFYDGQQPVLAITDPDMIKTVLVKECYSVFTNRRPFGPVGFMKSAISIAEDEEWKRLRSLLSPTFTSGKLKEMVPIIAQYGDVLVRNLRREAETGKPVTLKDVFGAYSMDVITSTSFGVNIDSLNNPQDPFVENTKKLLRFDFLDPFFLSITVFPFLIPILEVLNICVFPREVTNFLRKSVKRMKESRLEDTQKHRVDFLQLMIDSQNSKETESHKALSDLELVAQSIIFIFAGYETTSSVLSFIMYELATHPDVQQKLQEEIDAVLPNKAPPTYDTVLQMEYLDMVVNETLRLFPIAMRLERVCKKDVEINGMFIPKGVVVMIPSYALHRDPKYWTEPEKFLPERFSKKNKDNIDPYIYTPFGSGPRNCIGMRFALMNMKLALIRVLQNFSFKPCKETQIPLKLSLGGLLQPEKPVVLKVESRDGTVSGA
# Chain of Egl nine homolog 1 (Q9GZT9 whole entry, the tested form may be a part): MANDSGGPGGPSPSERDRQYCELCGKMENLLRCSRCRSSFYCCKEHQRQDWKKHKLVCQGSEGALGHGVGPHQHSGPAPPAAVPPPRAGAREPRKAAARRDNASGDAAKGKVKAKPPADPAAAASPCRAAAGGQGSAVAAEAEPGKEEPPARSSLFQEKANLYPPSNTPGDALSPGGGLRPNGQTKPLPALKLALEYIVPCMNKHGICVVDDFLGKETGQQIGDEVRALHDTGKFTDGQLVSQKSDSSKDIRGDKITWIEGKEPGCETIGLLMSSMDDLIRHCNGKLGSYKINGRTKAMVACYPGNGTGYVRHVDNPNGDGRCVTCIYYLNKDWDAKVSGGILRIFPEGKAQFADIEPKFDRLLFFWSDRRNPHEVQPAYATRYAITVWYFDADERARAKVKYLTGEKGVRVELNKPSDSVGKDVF
# Chain of Cytochrome P450 2C9 (P11712 whole entry): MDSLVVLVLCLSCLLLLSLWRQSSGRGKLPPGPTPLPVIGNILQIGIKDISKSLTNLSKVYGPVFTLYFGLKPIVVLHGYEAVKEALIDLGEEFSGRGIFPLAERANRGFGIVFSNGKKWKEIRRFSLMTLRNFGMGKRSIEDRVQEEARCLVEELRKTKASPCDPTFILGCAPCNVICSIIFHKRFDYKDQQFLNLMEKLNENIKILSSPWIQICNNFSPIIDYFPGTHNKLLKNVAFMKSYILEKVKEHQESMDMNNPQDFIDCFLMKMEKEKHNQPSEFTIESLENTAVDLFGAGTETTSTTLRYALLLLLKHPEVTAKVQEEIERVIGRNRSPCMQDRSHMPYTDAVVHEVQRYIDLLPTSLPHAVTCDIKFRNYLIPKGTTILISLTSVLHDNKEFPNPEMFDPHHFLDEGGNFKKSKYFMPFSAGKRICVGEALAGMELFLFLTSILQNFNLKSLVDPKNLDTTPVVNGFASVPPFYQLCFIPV
structure (smiles),measurement,setting,value
O=C(O)CNC(=O)c1ncc(C#CCOc2ccc(Cl)cc2)cc1O [DDO-3055],Activity,[1],Non-Toxic
same,clearance,[2],13.2 mL/min/kg
same,Ratio IC50,Homo sapiens [3],> 156
same,Activity,HUVEC,Non-Toxic
same,half-life at 100 µM,[4],8.68 min
same,Activity,[5],Toxic
same,Activity,[6],Non-Toxic
same,MRT inf,[7],281 min
same,Activity,L02,Non-Toxic
same,Activity,[8],Non-Toxic
same,IC50,Egl nine homolog 1,0.0642 µM
same,CL/F,[9],25.5 mL/min/kg
same,half-life at 100 µM,[10],32.3 min
same,Ratio IC50,Homo sapiens [11],2.6
same,clearance,[12],3.44 mL/min/kg
same,CLH,[13],< 0.01 mL/min/kg
same,Activity,[14],Non-Toxic
same,AUC(0-inf),[15],4860 ng·h/mL
same,IC50,Cytochrome P450 3A4 [16],> 30 µM
same,Activity,Mus musculus [17],Active
same,Activity,[18],Non-Toxic
same,MRT inf,[19],136 min
same,Activity,MCF7,Non-Toxic
same,half-life at 1 µM,[20],> 139 min
same,Vz,[21],3.409 L/kg
same,AUC(0-inf),[22],5420 ng·h/mL
same,Activity,[23],Non-Toxic
same,Activity,[24],Non-Toxic
same,AUC(0-t),[25],611 ng·h/mL
same,Tmax,[26],40.2 min
same,Tmax,[27],37.8 min
same,IC50,Cytochrome P450 2C9,> 30 µM
same,IC50,Cytochrome P450 3A4 [28],> 30 µM
same,Ratio IC50,Homo sapiens [29],1560
same,CLH,[30],< 0.013 mL/min/kg
same,Activity,Mus musculus [31],Dose-dependent effect
same,Activity,[32],Non-Toxic
